Measurements reported in patent US20260297092A1, “PYRAZOLOPYRIMIDINE DERIVATIVES AS INHIBITORS OF NLRP3” (Takeda Pharmaceutical Company Limited, priority 2023, published 2026).

Legend:
[1] = test system: NLRP3 inflammasome (IL-1β production in THP-1 cells); assay: IL-1β TR-FRET Assay (percentage of inhibition at 300 nM, 6 μM or 10 μM); type: cell-based, human; details: Homo sapiens, LPS priming, ATP activation; for inhibition at 0.3 µM: THP-1, 300 nM, read-out: IL-1β inhibitory rate at 300 nM (%); for inhibition at 6 µM: THP-1, 6 μM, read-out: IL-1β inhibitory rate at 6 μM (%)
Summary of the method: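 THP-1 cells were differentiated with 25 ng/mL IFN-γ for 24 h, primed with 50 ng/mL LPS in serum-free medium for 24 h, then given compound for 30 min before 20 mM ATP for 2 h. Supernatant IL-1β was measured by HTRF after 16-24 h at room temperature. Inhibition was normalized between DMSO (high) and 3 μM MCC-950 (low).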

[2] = test system: TNF-α (NF-κB pathway, THP-1 cells); assay: TNF-α Assay (IC50); type: cell-based, human; details: Homo sapiens, 600 ng/mL LPS, 3 hours
Summary of the method: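 THP-1 cells differentiated to macrophages with 25 ng/mL IFN for 24 h, plated 40,000/well in serum-free medium, preincubated with compounds 30 min at 37 °C, then stimulated with 600 ng/mL LPS for 3 h. Supernatant TNF-α measured by ELISA; IC50 from four-parameter logistic fit, 100% inhibition defined by TPCA-1.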

| SMILES | inhibition at 0.3 µM [1] | IC50 [2] | inhibition at 6 µM [1] |
| --- | --- | --- | --- |
| CCOc1nc2nn(-c3c(F)cc(C4CC4)cc3C(F)(F)F)cc2c(=O)[nH]1 [Example 117, 2-[4-cyclopropyl-2-fluoro-6-(trifluoromethyl)phenyl]-6-ethoxy-2,5-dihydro-4H-pyrazolo[3,4-d]pyrimidin-4-one] | 100% | > 30 µM |  |
| Cc1cc(C)c(-n2cc3c(=O)[nH]c(-c4ccccc4F)nc3n2)c(O)c1 [Example 20, 6-(2-fluorophenyl)-2-(2-hydroxy-4,6-dimethylphenyl)-2,5-dihydro-4H-pyrazolo[3,4-d]pyrimidin-4-one] | 100% | > 30 µM |  |
| COC1(c2nc3nn(-c4c(C)cc(C5CC5)cc4C)cc3c(=O)[nH]2)CC1 [Example 266, 2-(4-cyclopropyl-2,6-dimethylphenyl)-6-(1-methoxycyclopropyl)-2,5-dihydro-4H-pyrazolo[3,4-d]pyrimidin-4-one] |  | > 30 µM | 98% |
| CCOc1nc2nn(-c3c(C)cc(C)cc3Br)cc2c(=O)[nH]1 [Example 118, 2-(2-bromo-4,6-dimethylphenyl)-6-ethoxy-2,5-dihydro-4H-pyrazolo[3,4-d]pyrimidin-4-one] | 101% | > 30 µM |  |
| CCOc1nc2nn(-c3c(O)cc(C)cc3C3CC3)cc2c(=O)[nH]1 [Example 11, 2-(2-cyclopropyl-6-hydroxy-4-methylphenyl)-6-ethoxy-2,5-dihydro-4H-pyrazolo[3,4-d]pyrimidin-4-one] | 99% | > 30 µM |  |
| CCOc1nc2nn(-c3c(Br)cc(OC(F)F)cc3C(F)F)cc2c(=O)[nH]1 [Example 184, 2-[2-bromo-4-(difluoromethoxy)-6-(difluoromethyl)phenyl]-6-ethoxy-2,5-dihydro-4H-pyrazolo[3,4-d]pyrimidin-4-one] | 94% | > 30 µM |  |
| Cc1cc(C)c(-n2cc3c(=O)[nH]c(C4(C)CCCCO4)nc3n2)c(O)c1 (centres unmarked) [Example 90, 2-(2-hydroxy-4,6-dimethylphenyl)-6-(2-methyloxan-2-yl)-2,5-dihydro-4H-pyrazolo[3,4-d]pyrimidin-4-one] | 85% | > 30 µM |  |
| C=Cc1cc(C)c(-n2cc3c(=O)[nH]c(OCC)nc3n2)c(F)c1 [Example 120, 2-(4-ethenyl-2-fluoro-6-methylphenyl)-6-ethoxy-2,5-dihydro-4H-pyrazolo[3,4-d]pyrimidin-4-one] | 101% | > 30 µM |  |
| CCOc1nc2nn(-c3c(F)cc(C4CC4)cc3OC(F)F)cc2c(=O)[nH]1 [Example 107, 2-[4-cyclopropyl-2-(difluoromethoxy)-6-fluorophenyl]-6-ethoxy-2,5-dihydro-4H-pyrazolo[3,4-d]pyrimidin-4-one] | 99% | > 30 µM |  |
| COCc1nc2nn(-c3c(F)cc(C4CC4)cc3C(F)F)cc2c(=O)[nH]1 [Example 308, 2-[4-cyclopropyl-2-(difluoromethyl)-6-fluorophenyl]-6-(methoxymethyl)-2,5-dihydro-4H-pyrazolo[3,4-d]pyrimidin-4-one] |  | > 30 µM | 103% |
| Cc1cc(C)c(-n2cc3c(=O)[nH]c(-c4ccncn4)nc3n2)c(O)c1 [Example 2, 2-(2-hydroxy-4,6-dimethylphenyl)-6-(pyrimidin-4-yl)-2,5-dihydro-4H-pyrazolo[3,4-d]pyrimidin-4-one] | 100% | > 30 µM |  |
| CCOc1nc2nn(-c3c(C)cc(OC(F)F)cc3C)cc2c(=O)[nH]1 [Example 147, 2-[4-(difluoromethoxy)-2,6-dimethylphenyl]-6-ethoxy-2,5-dihydro-4H-pyrazolo[3,4-d]pyrimidin-4-one] | 103% | > 30 µM |  |
| CCOc1nc2nn(-c3c(C)cc(C)cc3Cl)cc2c(=O)[nH]1 [Example 70, 2-(2-chloro-4,6-dimethylphenyl)-6-ethoxy-2,5-dihydro-4H-pyrazolo[3,4-d]pyrimidin-4-one] | 100% | > 30 µM |  |
